Assay results from patent US8080539B2, “Method of treating human preeclampsia employing resibufagenin” (Scott and White Healthcare, priority 2004, dated 2011).
“And” between values parts separate entries of the source, which are not always exact repeats. Equal values may be shown once.

Key:
[1] = test system: vessels from normal pregnant animals or rats; assay: Perfusion of dissected vessels from normal pregnant rats with marinobufagenin; design: species or system rat; settings: vessels from normal pregnant rats perfused with marinobufagenin
Source text: (§1) It is elevated substantially more in preeclamptic rats.

[2] = test system: pregnant rats; assay: Blood pressure (tail cuff) in pregnant rats made hypertensive with MBG, then treated with RBG; type: in vivo, rat
Method: In order to confirm the effectiveness of RBG, experiments were performed. In the experiment, a group of four pregnant rats was provided with a blood pressure cuff on their tails in order to determine the base line blood pressure as shown in the table. In order to create hypertension, MBG was administered to the rats.
A dosage of approximately 7 mg per kg of rat weight with the rats weighing in the range of about 200-250 g was employed daily in order to determine the effectiveness of resibufagenin in the treatment of preeclampsia. The dosage was administered intraperitonially and the rats monitored after about three to four days of treatment. The MBG and RBG were administered in a suitable vehicle such as dimethylsulfoxide (DMSO).

[3] = test system: vessels from preeclamptic rats; assay: Perfusion of dissected vessels from preeclamptic rats with marinobufagenin; design: species or system rat; settings: vessels from preeclamptic rats perfused with marinobufagenin; average
Source text: as §1

[4] = test system: cellular systems; settings: cited from earlier work

| Compound | constriction of vessels [1] | BP after MBG ([2]; individual pregnant rats, tail blood pressure cuff, MBG administered to create hypertension) | constriction of vessels as compared with control [3] | biological effect in cellular systems [4] | change in blood pressure after treatment with RBG ([2]; all four pregnant rats, approximately 7 mg per kg daily intraperitoneally, about three to four days) | BP after RBG ([2]; individual pregnant rats made hypertensive with MBG, RBG approximately 7 mg per kg daily intraperitoneally in DMSO, after about three to four days of treatment) |
| --- | --- | --- | --- | --- | --- | --- |
| C[C@]12CC[C@H](O)C[C@@]1(O)CC[C@@H]1[C@@H]2CC[C@]2(C)[C@@H](c3ccc(=O)oc3)C[C@H]3O[C@]132 [MBG, marinobufagenin] | do not constrict | 125 mmHg and 130 mmHg and 115 mmHg and 135 mmHg | about 36% |  |  |  |
| C[C@]12CC[C@H](O)C[C@H]1CC[C@@H]1[C@@H]2CC[C@]2(C)[C@@H](c3ccc(=O)oc3)C[C@H]3O[C@]132 [RBG, Resibufagenin] |  |  |  | no biological effect | substantial reduction in blood pressure | 95 mmHg and 120 mmHg and 110 mmHg and 105 mmHg |
